The target of the assay is T1, hFASN enzyme (full length) (Homo sapiens, UniProt P49327).
T1 construct: 10 μL hFASN enzyme (full length, 300 ng, purified in house); made in house
The assay is described as follows: Fatty Acid Synthase (FASN) inhibition scintillation proximity assay. It counts as biochemical. The conditions noted are these: for inhibition at 10 µM: read-out: Human FASN % inhibition @ 10 μM, 10 μM test compound; for IC50: read-out: Human FASN pIC50 (converted). The essentials:
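Read-out relies on hydrophobic ³H-palmitate product, formed from ³H-acetyl-CoA and malonyl-CoA, binding streptavidin imaging beads, measured at 610±20 nm after at least 24 h. Full-length enzyme (300 ng) in phosphate buffer pH 7.5 with DTT; eight compound concentrations, 0.01–30 μM.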
For orientation: In a scintillation proximity assay essentially only radioactivity close to the scintillant gives light.

Each structure is given as a SMILES string.

The term inhibition denotes the drop in the measured response relative to a control, in per cent.

T1 sequence (P49327 whole entry): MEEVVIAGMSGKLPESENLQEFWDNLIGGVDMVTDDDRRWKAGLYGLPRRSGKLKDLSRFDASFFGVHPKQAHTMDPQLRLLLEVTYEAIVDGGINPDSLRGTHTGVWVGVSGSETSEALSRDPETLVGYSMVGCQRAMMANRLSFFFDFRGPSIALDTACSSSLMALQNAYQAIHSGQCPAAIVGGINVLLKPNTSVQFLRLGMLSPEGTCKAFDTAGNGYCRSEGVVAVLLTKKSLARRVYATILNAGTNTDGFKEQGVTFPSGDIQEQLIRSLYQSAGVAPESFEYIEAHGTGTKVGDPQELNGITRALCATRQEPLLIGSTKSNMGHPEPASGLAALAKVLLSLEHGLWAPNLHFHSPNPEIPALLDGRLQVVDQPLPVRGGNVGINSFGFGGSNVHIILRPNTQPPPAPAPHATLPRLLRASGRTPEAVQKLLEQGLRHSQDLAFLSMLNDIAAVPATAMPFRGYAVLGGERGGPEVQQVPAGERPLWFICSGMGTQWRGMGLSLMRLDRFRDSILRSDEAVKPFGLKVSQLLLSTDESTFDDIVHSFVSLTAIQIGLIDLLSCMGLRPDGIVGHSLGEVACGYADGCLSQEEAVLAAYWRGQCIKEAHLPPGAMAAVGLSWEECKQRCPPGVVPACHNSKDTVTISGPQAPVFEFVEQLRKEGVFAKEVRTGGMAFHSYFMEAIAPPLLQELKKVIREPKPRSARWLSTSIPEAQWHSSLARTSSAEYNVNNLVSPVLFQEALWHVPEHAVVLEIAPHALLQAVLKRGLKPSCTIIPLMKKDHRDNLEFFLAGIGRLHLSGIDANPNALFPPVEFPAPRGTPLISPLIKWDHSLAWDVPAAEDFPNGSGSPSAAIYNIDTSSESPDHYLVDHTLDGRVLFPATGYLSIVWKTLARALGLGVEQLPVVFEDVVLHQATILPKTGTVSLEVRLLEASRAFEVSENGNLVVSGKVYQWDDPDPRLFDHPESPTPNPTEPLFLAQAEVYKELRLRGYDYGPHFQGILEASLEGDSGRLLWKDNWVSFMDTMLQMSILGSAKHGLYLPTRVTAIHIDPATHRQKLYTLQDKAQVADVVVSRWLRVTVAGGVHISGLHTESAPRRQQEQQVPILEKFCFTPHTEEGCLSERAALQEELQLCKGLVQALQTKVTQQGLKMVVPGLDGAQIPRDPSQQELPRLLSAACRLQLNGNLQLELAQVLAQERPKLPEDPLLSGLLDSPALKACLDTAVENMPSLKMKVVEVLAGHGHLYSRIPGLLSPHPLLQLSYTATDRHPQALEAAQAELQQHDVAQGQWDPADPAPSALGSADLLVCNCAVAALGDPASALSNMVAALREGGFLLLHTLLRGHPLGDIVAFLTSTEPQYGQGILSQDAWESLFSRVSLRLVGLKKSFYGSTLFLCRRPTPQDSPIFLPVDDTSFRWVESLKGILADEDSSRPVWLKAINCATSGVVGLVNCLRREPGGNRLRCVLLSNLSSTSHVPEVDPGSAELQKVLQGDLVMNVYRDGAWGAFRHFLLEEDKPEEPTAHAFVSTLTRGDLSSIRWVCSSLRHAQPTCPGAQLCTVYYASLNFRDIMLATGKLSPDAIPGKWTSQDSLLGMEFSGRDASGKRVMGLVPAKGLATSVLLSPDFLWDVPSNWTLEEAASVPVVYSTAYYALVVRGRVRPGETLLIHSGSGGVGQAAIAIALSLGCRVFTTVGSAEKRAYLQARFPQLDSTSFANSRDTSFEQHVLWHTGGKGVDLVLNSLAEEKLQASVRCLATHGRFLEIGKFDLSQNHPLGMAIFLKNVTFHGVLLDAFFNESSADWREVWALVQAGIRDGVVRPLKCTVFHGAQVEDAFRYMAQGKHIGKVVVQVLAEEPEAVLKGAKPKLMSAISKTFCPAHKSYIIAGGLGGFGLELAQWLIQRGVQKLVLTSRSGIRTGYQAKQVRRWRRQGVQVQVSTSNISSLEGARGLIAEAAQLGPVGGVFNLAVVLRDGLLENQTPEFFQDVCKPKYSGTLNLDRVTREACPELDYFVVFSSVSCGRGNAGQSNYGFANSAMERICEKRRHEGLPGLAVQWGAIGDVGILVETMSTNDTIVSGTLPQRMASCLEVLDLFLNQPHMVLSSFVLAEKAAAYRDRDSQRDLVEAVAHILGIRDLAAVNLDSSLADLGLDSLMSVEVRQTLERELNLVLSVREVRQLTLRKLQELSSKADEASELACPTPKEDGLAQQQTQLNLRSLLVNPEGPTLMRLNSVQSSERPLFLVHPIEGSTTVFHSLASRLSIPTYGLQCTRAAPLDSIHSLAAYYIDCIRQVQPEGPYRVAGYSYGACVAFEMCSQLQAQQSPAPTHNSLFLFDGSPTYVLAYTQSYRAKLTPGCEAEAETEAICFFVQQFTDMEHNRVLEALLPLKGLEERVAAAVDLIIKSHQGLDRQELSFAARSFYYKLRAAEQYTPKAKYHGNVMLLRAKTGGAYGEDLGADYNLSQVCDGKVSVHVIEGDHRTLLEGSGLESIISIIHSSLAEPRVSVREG

For the molecule `O=C(N1CCCC1)N1CC(CN2C(=O)C3(CCOC3)N=C2c2ccc(-c3ccc4occc4c3)cc2)C1` (stereo not drawn) [compound 721, 2-[4-(1-Benzofuran-5-yl)phenyl]-3-{[1-(pyrrolidin-1-ylcarbonyl)azetidin-3-yl]methyl}-7-oxa-1,3-diazaspiro[4.4]non-1-en-4-one], the inhibition at 10 µM turned out to be 63% and the IC50 was 5.75 µM.

Take `Cn1ncc2cc(-c3ccc(C4=NC5(CCOC5)C(=O)N4CC4CN(C(=O)C5CC5)C4)cc3)ccc21` (stereo not drawn) [compound 722, 3-{[1-(Cyclopropylcarbonyl)azetidin-3-yl]methyl}-2-[4-(1-methyl-1H-indazol-5-yl)phenyl]-7-oxa-1,3-diazaspiro[4.4]non-1-en-4-one]: the inhibition at 10 µM was 56% and the IC50 was 6.61 µM.

With `CC(O)C(=O)N1CC(CN2C(=O)C3(CCOC3)N=C2c2ccc(-c3ccc4c(cnn4C)c3)cc2)C1` (stereo not drawn) [compound 723, 3-{[1-(2-Hydroxypropanoyl)azetidin-3-yl]methyl}-2-[4-(1-methyl-1H-indazol-5-yl)phenyl]-7-oxa-1,3-diazaspiro[4.4]non-1-en-4-one], the inhibition at 10 µM was determined as 55% and the IC50 was 7.94 µM.

As to `Cn1ncc2cc(-c3ccc(C4=NC5(CCOC5)C(=O)N4CC4CN(C(=O)[C@H]5CCCO5)C4)cc3)ccc21` (stereo partly drawn) [compound 724, 2-[4-(1-Methyl-1H-indazol-5-yl)phenyl]-3-({1-[(2R)-tetrahydro-furan-2-ylcarbonyl]azetidin-3-yl}methyl)-7-oxa-1,3-diazaspiro[4.4]non-1-en-4-one], the inhibition at 10 µM was found to be 47% and the IC50 is 4.17 µM.

Consider `COC(=O)N1CC2(C1)N=C(c1ccc(-c3ccc(-c4cnn(C)c4)cc3)cc1)N(C[C@@H]1CCN(C(=O)C(C)O)C1)C2=O` (stereo partly drawn) [compound 726, Methyl 7-{[(3R)-1-(2-hydroxypropanoyl)pyrrolidin-3-yl]methyl}-6-[4′-(1-methyl-1H-pyrazol-4-yl)biphenyl-4-yl]-8-oxo-2,5,7-triazaspiro[3.4]oct-5-ene-2-carboxylate], for which the inhibition at 10 µM amounted to 73% and the IC50 is 1.95 µM.

For the molecule `COC(=O)N1CC2(C1)N=C(c1ccc(-c3ccc4cccnc4c3)cc1)N(C[C@@H]1CCN(C(=O)C(F)(F)F)C1)C2=O` [compound 731, Methyl 8-oxo-6-(4-quinolin-7-ylphenyl)-7-{[(3R)-1-(trifluoroacetyl)pyrrolidin-3-yl]methyl}-2,5,7-triazaspiro[3.4]oct-5-ene-2-carboxylate], the inhibition at 10 µM was 63% and the IC50 was 3.8 µM.

Consider `COC(=O)N1CC2(C1)N=C(c1ccc(-c3ccc4cccnc4c3)cc1)N(C[C@@H]1CCN(C(=O)N3CCCC3)C1)C2=O` [compound 732, Methyl 8-oxo-7-{[(3S)-1-(pyrrolidin-1-ylcarbonyl)pyrrolidin-3-yl]methyl}-6-(4-quinolin-7-ylphenyl)-2,5,7-triazaspiro[3.4]oct-5-ene-2-carboxylate], for which the inhibition at 10 µM came out at 88% and the IC50 was around 1.2 µM.

Regarding `COC(=O)N1CC2(C1)N=C(c1ccc(-c3ccc4occc4c3)cc1)N(C[C@@H]1CCN(C(=O)C(C)O)C1)C2=O` (stereo partly drawn) [compound 734, Methyl 6-[4-(1-benzofuran-5-yl)phenyl]-7-{[(3R)-1-(2-hydroxypropanoyl)pyrrolidin-3-yl]methyl}-8-oxo-2,5,7-triazaspiro[3.4]oct-5-ene-2-carboxylate], the inhibition at 10 µM was 84% and the IC50 is 1.7 µM.

Regarding `COC(=O)N1CC2(C1)N=C(c1ccc(-c3ccc4c(cnn4C)c3)cc1)N(C[C@@H]1CCN(C(=O)C(C)O)C1)C2=O` (stereo partly drawn) [compound 738, Methyl 7-{[(3R)-1-(2-hydroxypropanoyl)pyrrolidin-3-yl]methyl}-6-[4-(1-methyl-1H-indazol-5-yl)phenyl]-8-oxo-2,5,7-triazaspiro[3.4]oct-5-ene-2-carboxylate], the inhibition at 10 µM was 80% and the IC50 is 1.91 µM.

For the origin of these results see US10077261B2, “Imidazolin-5-one derivative useful as FASN inhibitors for the treatment of cancer” (Janssen Pharmaceutica NV, priority 2012, dated 2018).
